Assay results as given in patent US9522163B2, “Methods of treating hepatitis” (priority 2002, dated 2016).

What was measured:
[1] = system: mouse primary hepatocytes; experiment: TNF-α/ActD-induced cell death, crystal violet viability; assay type: cell-based; conditions: BAY 11-7082 (10 μM) to inhibit NF-κB activation
[2] = system: iNOS; experiment: iNOS promoter luciferase reporter assay in hepatocytes; assay type: cell-based; conditions: BAY 11-7082 10 μM 1 hr prior to CO
Protocol: In some experiments, gene transfer of an IκBα superrepressor (Hellerbrand et al., Hepatology 27:1285-1295 (1998)) or β-galactosidase using adenoviral vectors (10 pfu/cell) was performed 12 hours prior to TNF-α/ActD treatment. NF-κB activation was evaluated using a luciferase reporter assay as described in Chow et al. (J. Biol. Chem. 274: 10689-10692 (1999)). Briefly, hepatocytes were co-transfected with NF-κB reporter constructs (pGL3-kappaβ luciferase, 100 ng/well; and pIEP-Lac-z 0.5 μg/well) using Lipofectin™ (Invitrogen, Carlsbad, Calif.) as instructed by the manufacturer. Evaluation of iNOS expression was performed using a luciferase reporter assay as described in Lowenstein et al. (Proc. Natl. Acad. Sci. U.S.A 90: 9730-9734 (1993)). Briefly, hepatocytes were co-transfected with iNOS promoter reporter constructs (pXP2; 1 μg/well) and pIEP-LacZ (0.5 μg/well) as described above.
Hepatocytes were transfected with plasmids as described above and treated with various stimuli 24 hours after transfection. Luciferase activity (reported as arbitrary units; A.U.) was assayed 6 hours after initiation of treatment, using a luciferase assay kit (Promega, Madison, Wis.) and a Berthold Luminometer. Results were corrected for transfection efficiency and protein concentration. […]

[3] = system: TNF-α/D-gal-induced liver injury
Protocol: Male C57BL/6J ([…], Bar Harbor, Me.), 8-12-wk-old inos^−/− mice and wild type littermates (bred/maintained at the University of Pittsburgh) were used for in vivo experiments.
10 mg/kg subcutaneously (s.c.), Alexis Biochem., San Diego, Calif.) or cobalt protoporphyrin (CoPP, 5 mg/kg, intraperitoneally (i.p.), Frontier Scientific, Logan, Utah). […] Where indicated, acetaminophen (Sigma Chem. Co.; St Louis, Mo.) was administered (500 mg/kg, i.p.).
A CO analyzer (Interscan, Chatsworth, Calif.) was used to measure CO levels continuously in the chamber. CO concentrations were maintained at 250 ppm at all times. Mice were placed in the exposure chamber as required.
Whether HO-1 is protective against acute hepatic failure was investigated. Cobalt protoporphyrin (5 mg/kg, i.p.) was administered to male C57BL/6J mice. Twenty-four hours later, TNF-α/D-gal (0.3 μg/8 mg/mouse, i.p., respectively) was administered to the mice. Serum alanine aminotransferase (ALT) levels in the mice were measured 8 hours after administration of TNF-α/D-gal.
After receiving TNF-α/D-gal, mice were returned to the CO exposure chamber and their serum was analyzed for ALT levels 6-8 hr later.
To generate the data presented in FIGS. 11A-11H, liver samples from mice treated with TNF-α/D-gal in the presence and absence of CO (250 ppm) for 8 hr were sectioned and stained for hematoxylin & eosin (H&E), activated caspase 3 (as indicated by an increase in red intensity), and for TUNEL positive cells (as demarcated by the increased green cellular staining; a marker of cell death). Nuclei stained blue.
L-NIL was administered 2 hr prior to CO. CO-treated animals were then pre-treated (250 ppm) for 1 hr prior to TNF-α/D-gal.
VP was selectively designed to deliver NO directly to the liver. One hour after the initial VP dose, the animals were exposed to CO for 1 hr prior to administration of TNF-α/D-gal (see above). Serum ALT levels were determined 6-8 hr later.
These mice and inos^−/− mice were then administered CoPP. L-NIL was maintained in the water throughout the experiment. Control and inos^−/− mice received normal drinking water. Twenty-four hr after administration of CoPP, TNF-α/D-gal was administered and serum ALT determined 6-8 hr later.

[4] = system: HO-1; experiment: Liver HO-1 expression (immunoblot); assay type: in vivo, mice; conditions: L-NIL 5 mg/kg i.p., room air
Protocol: Western blot analysis was performed on primary hepatocytes in culture or from liver homogenates with antibodies to iNOS (Transduction Laboratories, Lexington, Ky.; 1:1000), HO-1 (Calbiochem; 1:2000), or β-actin (Sigma Chemical; 1:5000). Thirty μg protein in cell culture experiments or 100 μg protein from liver homogenates was loaded per well for SDS-PAGE.
To assess the role of iNOS on TNF-α/D-gal-induced HO-1 expression in the liver (data presented in FIG. 16), mice were administered L-NIL (5 mg/kg, i.p.) 2 hr prior to pre-treatment with CO (250 ppm) and every 2 hr thereafter. Control mice received L-NIL and remained in room air.

[5] = system: mouse primary hepatocytes; experiment: TNF-α/ActD-induced cell death, crystal violet viability; assay type: cell-based
Protocol: Mouse primary hepatocytes were harvested from C57BL/6J, mkk3^−/−, inos^−/− (in-house breeding colony), or hmox-1^−/− mice as described in Kim et al. (J. Biol. Chem. 272: 1402-1411 (1997)). Hepatocytes were used on days 1-3 following harvest.
Cells were treated with TNF-α (10 ng/ml) and actinomycin-D (Act-D; 200 ng/ml, Sigma Chemical Co. St. Louis, Mo.) to induce cell death.
Whether exogenous CO is protective against hepatocyte cell death in vitro was investigated. To generate the data presented in FIG. 2, mouse hepatocytes were pre-incubated with CO (250 ppm) for 1 hr (standard pre-treatment time for all experiments) prior to addition of TNF-α/Act-D (10 ng/200 ng/ml respectively). Cells were maintained in CO for the duration of the experiment. Twelve hours afterward, cell viability was measured as described in Kim et al. (J. Biol. Chem. 272: 1402-1411 (1997)). Adenoviral experiments involved incubating hepatocytes overnight with 10 pfu/cell of the adenovirus prior to addition of TNF-α/ActD, and then assaying for viability using crystal violet. The roles of signaling molecules guanylyl cyclase and p38 MAPK were also investigated in this model. To evaluate the role of cGMP and confirm the role of NF-κB, hepatocytes were treated separately with the soluble guanylate cyclase (sGC) inhibitor 1H-[1,2,4]Oxadiazolo[4,3-a]quinoxalin-1-one (ODQ; Calbiochem; 2-10 μM) or the NF-κB inhibitor BAY 11-7082, (10 μM). Cells were treated with the inhibitors for 1 hour prior to the 1 hour pretreatment with CO. TNF-α/ActD was then added and the cells tested for viability 12 hours later. NF-κB activation was critical to the protection elicited by CO while cGMP was not involved.
To generate the data presented in FIG. 9, mouse hepatocytes were isolated from inos^−/− or from wild type C57BL/6J mice, which were then pre-treated for 1 hr with L-NIO (1 mM) to inhibit iNOS prior to CO administration. Those groups exposed to CO received a one-hour pretreatment prior to addition of TNF-α/ActD and were then returned to CO exposure.
To generate the data presented in FIG. 19, mouse hepatocytes were isolated from HO-1 null mice (hmox-1^−/−) and wild type (C57BL/6J) littermates, pretreated for 1 hour with CO (250 ppm), and treated with TNF-α/ActD. Viability was assayed as described above.
To generate the data presented in FIG. 20, mouse hepatocytes were isolated from HO-1 null mice (hmox-1^−/−) and wild type (C57BL/6J) littermates, pretreated with the NO donor SNAP (500 μM), and then treated with TNF-α/ActD 1 hour later.

[6] = SNAP 500 μM, 1 hour before TNF-α/ActD

For Cc1ccc(S(=O)(=O)/C=C/C#N)cc1 [BAY 11-7082, reference compound], the “Effect on the protective effects of CO” value [1] was “abrogated” and the “iNOS luciferase reporter activity with NF-κB inhibitor” value [2] was “decreased reporter activity”.

For C=CC1=C(C)c2cc3[n-]c(cc4nc(cc5[n-]c(cc1n2)c(C)c5CCC(=O)[O-])C(CCC(=O)[O-])=C4C)c(C)c3C=C.[Co+2].[H+].[H+] [CoPP, cobalt protoporphyrin], the “Liver injury as measured by serum ALT” value ([3]; 5 mg/kg i.p. 24 h before TNF-α/D-gal, ALT 8 hours after, C57BL/6J mice) was “prevented liver injury”, the Liver injury ([3]; CoPP with and without L-NIL (4.5 mM drinking water), TNF-α/D-gal 24 hours after CoPP) was “protected from liver injury” and the “Reduction in serum ALT” value ([3]; inos−/− mice, CoPP 24 hr before TNF-α/D-gal, 6-8 hr later) was over 50%.

In the case of CC(=N)NCCCC[C@H](N)C(=O)O.Cl.Cl [L-NIL, L-N6-(1-iminoethyl)-lysine-dihydrochloride, reference compound], the “Severity of liver injury, L-NIL alone” value ([3]; L-NIL 4.5 mM in drinking water, TNF-α/D-gal) is reported as “did not change the severity of injury” and the “Liver HO-1 expression, L-NIL alone” value [4] is reported as “minimal effect”.

With O=c1onc2cnc3ccccc3n12 [ODQ, 1H-[1,2,4]Oxadiazolo[4,3-a]quinoxalin-1-one, reference compound] the “Effect on protection provided by CO” value ([5]; ODQ 2-10 μM, 1 hour prior to CO pretreatment) was “did not reverse the protection”.

In the case of CC(=O)N[C@H](C(=O)O)C(C)(C)SN=O [SNAP, s-nitroso-N-acetyl-penicillamine, reference compound], the “TNF-α/ActD-induced cell death, hmox-1−/− hepatocytes” value [5, 6] is reported as “did not provide significant protection” and the “TNF-α/ActD-induced cell death, wild type hepatocytes” value [5, 6] is reported as “significantly protected against cell death”.

With C=Cc1c2[n-]c(c1C)/C=c1\[n-]/c(c(C)c1C=C)=C\c1[n-]c(c(CCC(=O)O)c1C)/C=c1\[n-]c(c(C)c1CCC(=O)O)=C2.[Sn+4] [SnPP, tin protoporphyrin] the “Effect on the protective effects of CO” value ([3]; SnPP 50 μmol/kg s.c. 5 hr prior to CO, TNF-α/D-gal) was “significantly diminished”, the “Effect on protection by the NO donor V-PYRRO/NO” value ([3]; TNF-α/D-gal with SnPP) was “abrogated” and the “Effect of administration in the absence of TNF-α/D-gal” value ([3]; data not shown) was “no deleterious or protective effects”.
